Experimental data as given in patent publication US11952368B2, “FAPI dimer compound, FAPI dimer-based positron emission tomography (PET) imaging agent for tumor diagnosis, and preparation method and use thereof” (XIAMEN UNIVERSITY, priority 2021, dated 2024).

Molecular target: T1, FAP on CAFs (Homo sapiens, UniProt Q12884)
T1 construct: FAP-expressing CAFs were inoculated in a 24-well plate; endogenous in cells; host or cells: cancer-associated fibroblasts (CAFs)
T1 sequence (Q12884 1-760): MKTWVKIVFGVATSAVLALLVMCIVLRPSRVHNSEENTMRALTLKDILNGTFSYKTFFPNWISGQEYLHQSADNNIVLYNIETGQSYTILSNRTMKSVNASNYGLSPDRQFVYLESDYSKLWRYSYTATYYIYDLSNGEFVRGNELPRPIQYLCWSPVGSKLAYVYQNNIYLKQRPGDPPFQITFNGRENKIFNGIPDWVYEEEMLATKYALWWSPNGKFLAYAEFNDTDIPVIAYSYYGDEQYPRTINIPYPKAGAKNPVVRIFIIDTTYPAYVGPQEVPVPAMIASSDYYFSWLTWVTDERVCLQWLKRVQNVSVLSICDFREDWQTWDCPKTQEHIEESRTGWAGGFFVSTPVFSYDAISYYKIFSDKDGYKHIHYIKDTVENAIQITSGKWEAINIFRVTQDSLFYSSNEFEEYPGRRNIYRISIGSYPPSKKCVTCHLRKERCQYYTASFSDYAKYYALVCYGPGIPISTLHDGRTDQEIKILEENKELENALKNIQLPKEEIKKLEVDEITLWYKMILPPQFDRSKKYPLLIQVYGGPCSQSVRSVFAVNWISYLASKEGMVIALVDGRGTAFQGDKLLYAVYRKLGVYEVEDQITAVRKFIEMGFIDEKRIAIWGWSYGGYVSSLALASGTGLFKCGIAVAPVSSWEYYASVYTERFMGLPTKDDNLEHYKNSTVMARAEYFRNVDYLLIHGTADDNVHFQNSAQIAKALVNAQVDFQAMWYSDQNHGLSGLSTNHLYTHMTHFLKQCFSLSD
Assay: FAP binding assay (radioligand competition) on CAFs
Experimental: FAP-expressing CAFs were inoculated in a 24-well plate and cultivated with a 10% (volume fraction) FBS-containing 1640 medium for 48 h before the experiment until a cell density was about 80% to 90%; the medium was changed to an FBS-free 1640 medium; and the ^68Ga-2PEG(3)-FAPI-dimer, ^68Ga-FAPI-46, or ^68Ga-2PEG(3)-FAPI-dimer+11.3 nmol FAPI-46 (for the blocking experiment) was added to the 24-well plate and incubated, with predetermined intervals of 10 min, 30 min, 60 min, 90 min, and 120 min. The FAP binding assay was conducted after a radiolabeled compound and a corresponding unlabeled FAPI derivative (1.27×10^−4-10^−13 mol/L of 2PEG(3)-FAPI-dimer was added to ^68Ga-2PEG(3)-FAPI-dimer; and 2.83×10^−4-1×10^−13 mol/L of FAPI-46 was added to ^68Ga-FAPI-46) were co-incubated for 60 min. A half-inhibitory concentration (IC50s) was calculated by using GraphPad Prism to fit data through nonlinear regression. In each step of the experiment, cells were washed twice with 1 mL of PBS. Finally, CAFs were lysed with 0.5 mL of a 1 mol/L NaOH aqueous solution to conduct radioactive counting with a gamma counter. 3 parallel replicates were set for each experiment.

IC50 value compared with FAPI-46: similar
SMILES: CN(CCCN1CCN(C(=O)COCCOCCOCCNC(=O)CCC(=O)N[C@@H](CCCCNC(=O)CN2CCN(CC(=O)O)CCN(CC(=O)O)CCN(CC(=O)O)CC2)C(=O)NCCOCCOCCOCC(=O)N2CCN(CCCN(C)c3ccc4nccc(C(=O)NCC(=O)N5CC(F)(F)C[C@H]5C#N)c4c3)CC2)CC1)c1ccc2nccc(C(=O)NCC(=O)N3CC(F)(F)C[C@H]3C#N)c2c1 [2PEG(3)-FAPI-dimer]
